In patent EP0216646B1, “N,N-dimethylethyl amine oxide derivative, process for its preparation and pharmaceutical compositions obtained” (Albert ROLLAND S.A. Société dite, priority 1985, dated 1987):

Legend:
Type in all cases: in vivo
[1] = acute toxicity in the mouse (median lethal dose); settings: in vivo; acute toxicity, mouse; read-out: dose léthale moyenne
From the text: (§1) Les sels de 2,2-bis phénoxy NN-diméthyl éthylamine sont décrits comme possédant des propriétés anti-dépressives.

souris [2] = assay: acute toxicity in the mouse (median lethal dose)
From the text: as §1

[3] = reserpine-induced hypothermia test; settings: qualitative
From the text: (§2) Le N-oxyde de 2,2-bis phénoxy NN-diméthyl éthylamine et ses sels possèdent les propriétés caractéristiques des autres anti-dépresseurs, sur les tests pharmacologiques classiques. Ils inhibent l'effet hypothermisant de la réserpine, et de l'apomorphine, ils augmentent la toxicité de groupe induite par injection de yohimbine et ils antagonisent le test du désespoir chez la souris.

[4] = apomorphine test (apomorphine-induced hypothermia)
From the text: as §2

[5] = yohimbine-induced group toxicity
From the text: as §2

souris [6] = assay: despair test in the mouse; settings: qualitative
From the text: as §2

[7] = compared with 2,2-bis phénoxy NN-diméthyl éthylamine

## CN(C)CC(Oc1ccccc1)Oc1ccccc1 [2,2-bis phénoxy NN-diméthyl éthylamine, reference compound]
[1]
  LD50: ~800 mg/kg

## C[N+](C)([O-])CC(Oc1ccccc1)Oc1ccccc1 [N-oxydede 2,2-bis phénoxy NN-diméthyl éthylamine]
Souris [2]; acute toxicity, mouse
  dose léthale moyenne: il n'a pas été possible de déterminer
Souris [2]; qualitative statement
  toxicité: très faible
[3]
  effet hypothermisant de la réserpine: inhibent
[4]; [7]
  action antagoniste sur le test à l'apomorphine: nettement plus marquées
[4]; qualitative
  effet hypothermisant de l'apomorphine: inhibent
[5]; [7]
  action positive vis-à-vis de la toxicité de groupe à la yohimbine: nettement plus marquées
[5]; qualitative
  toxicité de groupe induite par injection de yohimbine: augmentent
Souris [6]
  test du désespoir chez la souris: antagonisent
